# Data taken from ChEMBL document CHEMBL1201862, “PubChem BioAssay data set” (2004).
# The source made the active and inactive calls.
# What was measured:
# [1] = molecular target: T1, Heat shock factor protein 1 (Mus musculus, UniProt P38532); experiment: enhancement of HSF1-driven luciferase signal – cell-based, NIH3T3, luminescence, dose retest, confirmation (AID 435004); format: functional;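 further: stress induced by proteasome inhibitor MG132 added 30 min after compound; luciferase reporter driven by HSF1 response element in NIH3T3 cells; actives raise luminescence as potentiators of the MG132 stress response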
# T1 sequence (P38532 whole entry): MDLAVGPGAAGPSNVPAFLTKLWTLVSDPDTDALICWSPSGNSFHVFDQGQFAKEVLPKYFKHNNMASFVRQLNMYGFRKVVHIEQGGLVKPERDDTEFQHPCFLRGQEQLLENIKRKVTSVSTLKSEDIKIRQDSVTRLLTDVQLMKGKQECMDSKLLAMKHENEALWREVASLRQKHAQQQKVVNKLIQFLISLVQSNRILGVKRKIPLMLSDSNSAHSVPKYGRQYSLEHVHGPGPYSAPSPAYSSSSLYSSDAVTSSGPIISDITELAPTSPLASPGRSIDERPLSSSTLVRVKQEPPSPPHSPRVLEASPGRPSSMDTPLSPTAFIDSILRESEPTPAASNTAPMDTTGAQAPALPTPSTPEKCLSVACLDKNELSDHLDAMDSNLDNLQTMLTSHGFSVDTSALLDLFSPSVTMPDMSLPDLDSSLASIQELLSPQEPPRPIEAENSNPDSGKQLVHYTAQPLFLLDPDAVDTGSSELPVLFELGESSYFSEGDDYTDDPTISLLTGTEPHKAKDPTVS
# Cytochrome P450 2C19 = Cytochrome P450 2C19 (Homo sapiens, UniProt P33261); experiment: Cytochrome panel assay with activity outcomes. Panel member name: p450-cyp2c19 Compounds with AC50 equal or less than 10 uM are considered active; format: functional; settings: read-out: AC50
# Cytochrome P450 1A2 = molecular target: T2, Cytochrome P450 1A2 (Homo sapiens, UniProt P05177);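 further: PubChem cytochrome P450 panel assay, CYP1A2 panel member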
# T2 sequence (P05177 whole entry): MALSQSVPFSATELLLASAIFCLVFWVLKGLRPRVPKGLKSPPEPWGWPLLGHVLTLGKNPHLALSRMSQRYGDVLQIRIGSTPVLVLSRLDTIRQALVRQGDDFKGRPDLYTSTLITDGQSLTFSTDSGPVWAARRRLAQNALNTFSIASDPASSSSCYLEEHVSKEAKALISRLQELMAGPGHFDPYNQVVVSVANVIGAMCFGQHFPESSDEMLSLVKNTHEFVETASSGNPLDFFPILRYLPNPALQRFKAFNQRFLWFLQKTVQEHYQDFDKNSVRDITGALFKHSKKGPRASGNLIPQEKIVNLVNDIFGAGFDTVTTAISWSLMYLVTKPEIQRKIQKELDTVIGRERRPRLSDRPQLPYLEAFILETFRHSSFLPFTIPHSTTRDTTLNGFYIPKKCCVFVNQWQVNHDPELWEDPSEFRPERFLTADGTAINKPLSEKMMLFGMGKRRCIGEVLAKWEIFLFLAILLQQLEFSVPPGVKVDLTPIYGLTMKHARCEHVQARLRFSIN
# Cytochrome P450 3A4 = Cytochrome P450 3A4 (Homo sapiens, UniProt P08684);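 further: CYP3A4 tested as one member of a cytochrome P450 panel screen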
# Fatty acid synthase [2] = molecular target: T3, Fatty acid synthase (Homo sapiens, UniProt P49327); experiment: inhibition of human FAS-TE enzyme activity – biochemical, endpoint fluorescence intensity, uHTS hits, dose response (AID 624327); format: functional;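 further: fluorescence from hydrolysis of an O-methyl fluorescein acyl ester substrate by the enzyme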
# Fatty acid synthase [3] = molecular target: T3, Fatty acid synthase; experiment: inhibition of human FAS-TE enzyme activity – biochemical, kinetic fluorescence intensity, dose response (AID 624326); format: functional;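 further: rate of fluorescence rise from hydrolysis of a fluorogenic O-methyl fluorescein ester substrate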
# INS1 = experiment: INS-1E survival protection against cytokine death – cell-based, luminescence, retest, dose response (AID 449756); format: functional; settings: Rattus norvegicus;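 further: cell death triggered by IL-1 beta plus TNF-alpha plus IFN-gamma mixture; protective hits raise ATP signal compared with cytokine alone wells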
# [4] = reduction of Shn3 3'UTR-driven luciferase in osteoblasts – cell-based, Clone20 osteoblasts, firefly luciferase, cherry-picked, dose response (AID 624132); format: functional;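 further: firefly luciferase luminescence from reporter carrying the Shn3 3'UTR in osteoblasts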
# [5] = loss of viability in HepG2 cells – cell-based, CellTiter-Glo, cherry-picked, cytotoxicity control for Shn3 inhibitor project, dose response (AID 624134); format: functional
# [6] = non-specific 3'UTR reporter inhibition in Clone20-Shn3RL – cell-based, Renilla luciferase, cherry-picked, counter-screen for Shn3 inhibitor project, dose response (AID 624133); format: functional
# Cytochrome P450 2C9 = Cytochrome P450 2C9 (Homo sapiens, UniProt P11712)
# [7] = molecular target: T1, Heat shock factor protein 1; experiment: decrease of HSF1-responsive luciferase luminescence – cell-based, NIH3T3, dose retest, confirmation (AID 2382); format: functional;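 further: NIH3T3 fibroblasts with HSF1-driven luciferase reporter stressed by proteasome inhibitor MG132; luminescence from HSF1-driven luciferase expression after 8 hours of MG132 stress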
# [8] = Trypanosoma cruzi growth suppression in host cells – NIH3T3 host cells, beta-gal luminescence, confirmation (AID 2044); format: functional, cell-based;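 further: intracellular parasites grown in NIH/3T3 mouse fibroblasts as host cells; luminescent beta-galactosidase reporter signal from transgenic T. cruzi replicating inside host cells; inhibitors lower the luminescence signal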
# [9] = microbe, parasite or virus in culture; format: functional; settings: Mycobacterium tuberculosis
# [10] = NIH3T3 cell viability loss – ATP luminescence, mouse fibroblasts, counter-screen, dose response (AID 2010); format: functional, cell-based;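 further: cells exposed to compound for about 90 hours before reading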
# [11] = THP-1 cell cytotoxicity, dose response, cytotoxicity control for non-replicating M. tuberculosis project (AID 489025); format: functional
# [12] = Vero E6 cell cytotoxicity, dose response, cytotoxicity control for non-replicating M. tuberculosis project, secondary assay (AID 492998); format: functional, VeroE6; settings: Vero C1008
# cells = format: functional
# [13] = molecular target: T4, RNA-binding protein pos-1 (Caenorhabditis elegans, UniProt G5EF15); experiment: disruptors of C. elegans POS-1 RNA interaction – biochemical, fluorescence polarization, dose response (AID 1964);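 further: purified POS-1 fused to maltose binding protein made in E. coli; potency of compounds blocking POS-1 binding to fluorescent RNA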
# T4 sequence (G5EF15 whole entry): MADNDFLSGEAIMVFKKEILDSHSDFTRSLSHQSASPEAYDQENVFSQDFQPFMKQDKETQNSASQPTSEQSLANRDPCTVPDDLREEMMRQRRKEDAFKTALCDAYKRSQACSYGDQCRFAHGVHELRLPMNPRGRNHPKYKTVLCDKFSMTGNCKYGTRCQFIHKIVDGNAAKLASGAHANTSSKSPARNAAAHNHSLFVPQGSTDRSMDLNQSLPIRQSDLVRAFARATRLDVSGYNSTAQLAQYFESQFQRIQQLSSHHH
# [14] = molecular target: T5, Zinc finger protein mex-5 (Caenorhabditis elegans, UniProt Q9XUB2); experiment: potency of MEX-5 RNA-binding blockers – biochemical, C. elegans, fluorescence polarization, dose response (AID 1960)
# T5 sequence (Q9XUB2 whole entry): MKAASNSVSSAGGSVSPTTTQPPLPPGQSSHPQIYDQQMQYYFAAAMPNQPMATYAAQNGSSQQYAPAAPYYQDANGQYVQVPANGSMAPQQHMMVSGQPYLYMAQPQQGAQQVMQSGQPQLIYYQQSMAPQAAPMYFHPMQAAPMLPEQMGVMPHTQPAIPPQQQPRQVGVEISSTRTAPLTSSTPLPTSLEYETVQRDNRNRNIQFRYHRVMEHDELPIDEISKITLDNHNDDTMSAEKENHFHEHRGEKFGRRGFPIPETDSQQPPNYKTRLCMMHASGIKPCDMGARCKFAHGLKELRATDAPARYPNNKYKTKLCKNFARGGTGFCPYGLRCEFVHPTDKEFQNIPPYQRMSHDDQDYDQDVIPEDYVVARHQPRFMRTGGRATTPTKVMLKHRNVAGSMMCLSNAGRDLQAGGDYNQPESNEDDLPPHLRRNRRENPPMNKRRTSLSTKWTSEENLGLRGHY
# H9c2 = experiment: cells; format: functional, cell-based; settings: Rattus norvegicus, H9c2, Myocardium;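 further: confirmatory concentration-response retest of ultra-high-throughput screening hits for modulation of myocardial damage; cell death induced by hydrogen peroxide oxidative stress; compound pretreatment for 60 min then peroxide exposure for 2 h; potency is for protecting the cells against peroxide damage rather than for killing them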
# [15] = HIV-1 AD8 envelope cell-cell fusion blockers – cherry-pick, dose response (AID 652062); format: functional, cell-based;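 further: luciferase signal from cell-cell fusion driven by HIV-1 clade B AD8 Env; potency is for inhibitors of fusion seen as a drop in luminescence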
# Chain of Cytochrome P450 3A4 (P08684 whole entry): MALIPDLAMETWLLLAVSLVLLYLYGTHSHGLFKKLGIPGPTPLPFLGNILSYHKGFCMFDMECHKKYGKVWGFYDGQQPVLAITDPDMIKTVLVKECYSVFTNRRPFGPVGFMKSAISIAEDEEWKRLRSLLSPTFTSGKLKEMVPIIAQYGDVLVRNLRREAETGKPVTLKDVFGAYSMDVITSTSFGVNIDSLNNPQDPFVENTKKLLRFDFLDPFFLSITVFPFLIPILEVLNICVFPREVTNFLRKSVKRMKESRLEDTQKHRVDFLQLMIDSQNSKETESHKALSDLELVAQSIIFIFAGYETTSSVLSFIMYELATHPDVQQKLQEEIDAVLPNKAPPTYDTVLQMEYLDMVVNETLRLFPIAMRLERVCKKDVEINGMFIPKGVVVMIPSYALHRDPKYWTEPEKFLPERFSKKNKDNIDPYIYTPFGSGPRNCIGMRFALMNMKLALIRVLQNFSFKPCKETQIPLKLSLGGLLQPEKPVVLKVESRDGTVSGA
# T3 sequence (P49327 whole entry): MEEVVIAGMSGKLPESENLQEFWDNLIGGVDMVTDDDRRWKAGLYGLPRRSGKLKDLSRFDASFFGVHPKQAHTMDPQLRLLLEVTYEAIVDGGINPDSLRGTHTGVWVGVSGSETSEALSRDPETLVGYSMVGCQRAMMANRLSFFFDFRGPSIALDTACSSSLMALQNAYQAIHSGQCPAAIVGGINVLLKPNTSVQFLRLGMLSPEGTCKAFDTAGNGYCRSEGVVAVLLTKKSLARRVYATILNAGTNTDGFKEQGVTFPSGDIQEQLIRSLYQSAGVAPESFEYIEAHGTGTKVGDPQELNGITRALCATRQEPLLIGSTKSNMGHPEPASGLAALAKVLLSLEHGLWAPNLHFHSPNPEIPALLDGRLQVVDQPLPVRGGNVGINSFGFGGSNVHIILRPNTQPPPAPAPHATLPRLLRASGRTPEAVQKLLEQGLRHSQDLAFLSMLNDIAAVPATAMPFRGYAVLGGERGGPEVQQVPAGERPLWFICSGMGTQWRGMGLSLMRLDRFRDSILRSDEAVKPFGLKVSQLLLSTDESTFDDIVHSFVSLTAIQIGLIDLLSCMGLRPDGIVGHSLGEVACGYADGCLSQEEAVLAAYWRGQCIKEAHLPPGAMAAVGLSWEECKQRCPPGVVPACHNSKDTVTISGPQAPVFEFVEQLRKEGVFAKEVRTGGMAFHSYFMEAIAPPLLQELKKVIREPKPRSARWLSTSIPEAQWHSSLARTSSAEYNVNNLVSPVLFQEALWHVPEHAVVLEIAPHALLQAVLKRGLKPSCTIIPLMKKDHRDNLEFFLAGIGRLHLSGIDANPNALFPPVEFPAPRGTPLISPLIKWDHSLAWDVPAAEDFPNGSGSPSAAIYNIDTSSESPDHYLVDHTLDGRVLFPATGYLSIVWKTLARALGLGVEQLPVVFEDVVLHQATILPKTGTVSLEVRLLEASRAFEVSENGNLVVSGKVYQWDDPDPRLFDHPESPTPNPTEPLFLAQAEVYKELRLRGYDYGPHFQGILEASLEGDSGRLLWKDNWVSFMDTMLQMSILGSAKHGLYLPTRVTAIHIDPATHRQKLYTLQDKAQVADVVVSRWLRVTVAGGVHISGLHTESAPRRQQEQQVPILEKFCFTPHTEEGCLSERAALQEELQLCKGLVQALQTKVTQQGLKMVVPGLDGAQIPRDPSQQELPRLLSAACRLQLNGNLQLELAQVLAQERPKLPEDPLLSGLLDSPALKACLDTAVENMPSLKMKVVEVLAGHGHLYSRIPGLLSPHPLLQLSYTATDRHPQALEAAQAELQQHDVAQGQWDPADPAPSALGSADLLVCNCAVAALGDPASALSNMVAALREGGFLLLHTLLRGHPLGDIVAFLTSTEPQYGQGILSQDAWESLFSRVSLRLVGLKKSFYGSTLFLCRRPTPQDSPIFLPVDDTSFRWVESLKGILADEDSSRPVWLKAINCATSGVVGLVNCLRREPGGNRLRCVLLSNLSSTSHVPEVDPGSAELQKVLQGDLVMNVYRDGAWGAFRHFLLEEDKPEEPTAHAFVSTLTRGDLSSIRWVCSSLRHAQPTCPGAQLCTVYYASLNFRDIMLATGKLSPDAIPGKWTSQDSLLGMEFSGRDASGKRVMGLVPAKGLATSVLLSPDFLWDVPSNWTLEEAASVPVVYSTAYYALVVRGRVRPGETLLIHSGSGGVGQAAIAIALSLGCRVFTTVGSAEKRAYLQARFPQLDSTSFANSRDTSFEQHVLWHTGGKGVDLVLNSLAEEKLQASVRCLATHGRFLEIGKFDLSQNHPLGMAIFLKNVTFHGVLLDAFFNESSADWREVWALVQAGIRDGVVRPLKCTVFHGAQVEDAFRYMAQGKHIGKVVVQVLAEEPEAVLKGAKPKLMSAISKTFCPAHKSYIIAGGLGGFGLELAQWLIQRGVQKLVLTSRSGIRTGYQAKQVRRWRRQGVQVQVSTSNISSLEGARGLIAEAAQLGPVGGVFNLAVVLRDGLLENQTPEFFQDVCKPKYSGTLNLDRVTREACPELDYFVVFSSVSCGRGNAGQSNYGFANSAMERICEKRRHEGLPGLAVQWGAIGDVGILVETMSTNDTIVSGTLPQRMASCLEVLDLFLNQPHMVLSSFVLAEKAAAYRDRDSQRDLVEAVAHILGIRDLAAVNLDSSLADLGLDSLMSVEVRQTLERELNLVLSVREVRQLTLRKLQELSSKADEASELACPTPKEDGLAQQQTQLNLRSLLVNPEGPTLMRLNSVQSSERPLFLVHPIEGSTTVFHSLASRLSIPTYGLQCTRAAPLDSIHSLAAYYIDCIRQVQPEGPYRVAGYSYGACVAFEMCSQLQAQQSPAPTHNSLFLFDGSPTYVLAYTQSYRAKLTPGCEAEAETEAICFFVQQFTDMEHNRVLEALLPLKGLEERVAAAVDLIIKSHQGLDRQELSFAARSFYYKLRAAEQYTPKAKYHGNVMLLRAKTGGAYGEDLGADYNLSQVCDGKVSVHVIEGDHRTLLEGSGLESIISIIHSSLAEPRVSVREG
# Chain of Cytochrome P450 2C9 (P11712 whole entry): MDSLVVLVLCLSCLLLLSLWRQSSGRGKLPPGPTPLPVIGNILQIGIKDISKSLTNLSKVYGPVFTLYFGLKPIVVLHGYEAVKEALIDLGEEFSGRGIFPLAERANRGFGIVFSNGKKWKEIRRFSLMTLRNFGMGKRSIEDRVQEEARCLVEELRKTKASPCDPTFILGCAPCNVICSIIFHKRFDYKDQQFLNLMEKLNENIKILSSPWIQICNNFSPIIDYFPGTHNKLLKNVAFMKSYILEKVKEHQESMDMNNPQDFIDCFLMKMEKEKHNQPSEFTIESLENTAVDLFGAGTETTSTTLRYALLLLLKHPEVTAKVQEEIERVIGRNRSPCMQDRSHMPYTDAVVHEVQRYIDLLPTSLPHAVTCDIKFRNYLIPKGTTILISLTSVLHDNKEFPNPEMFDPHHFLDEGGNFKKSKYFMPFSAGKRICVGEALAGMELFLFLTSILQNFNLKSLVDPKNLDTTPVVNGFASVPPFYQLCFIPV
# Chain of Cytochrome P450 2C19 (P33261 whole entry): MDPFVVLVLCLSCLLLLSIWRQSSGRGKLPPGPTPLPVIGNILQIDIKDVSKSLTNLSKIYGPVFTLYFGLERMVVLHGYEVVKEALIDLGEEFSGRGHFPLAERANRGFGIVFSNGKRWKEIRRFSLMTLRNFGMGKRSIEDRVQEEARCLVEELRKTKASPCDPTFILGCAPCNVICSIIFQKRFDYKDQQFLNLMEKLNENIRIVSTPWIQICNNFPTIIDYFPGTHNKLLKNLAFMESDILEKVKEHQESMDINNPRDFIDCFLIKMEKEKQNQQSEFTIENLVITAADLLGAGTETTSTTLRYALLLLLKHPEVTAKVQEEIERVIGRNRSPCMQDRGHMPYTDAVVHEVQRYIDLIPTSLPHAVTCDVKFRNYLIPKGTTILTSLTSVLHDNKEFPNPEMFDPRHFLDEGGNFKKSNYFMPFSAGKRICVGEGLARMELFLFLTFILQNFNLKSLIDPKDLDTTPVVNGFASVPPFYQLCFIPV
smiles,measurement,setting,value
CCOc1ccc2nc(COC(=O)c3cccc([N+](=O)[O-])c3)c(C(C)=O)[n+]([O-])c2c1,EC50,[1],> 260 µM (inactive)
O=C(Nc1ccccc1)N1CCC2(CC1)CCN(C(=O)c1ccco1)CC2,AC50,Cytochrome P450 2C19,39.8 µM (inconclusive)
same,AC50,Cytochrome P450 1A2,10 µM (inconclusive)
same,AC50,Cytochrome P450 3A4,inconclusive
O=C(Cn1cc(C(=O)C2CC2)c2ccccc21)NCc1ccc2c(c1)OCO2,IC50,Fatty acid synthase [2],14.3 µM (active)
same,IC50,Fatty acid synthase [3],8.36 µM (active)
COc1ccc(Nc2nc(N3CCCCC3)c3ccccc3n2)cc1,AC50,INS1,4.63 µM (active)
same,AC50,[4],2.11 µM (active)
same,AC50,[5],36.5 µM (active)
same,AC50,[6],6.45 µM (active)
same,AC50,Cytochrome P450 2C9,17.8 µM (inconclusive)
same,AC50,Cytochrome P450 3A4,inconclusive
O=C(NC1CCCCC1)c1cnn2c(C(F)(F)F)cc(-c3ccco3)nc12,EC50,[1],> 260 µM (inactive)
COc1ccc([C@@H]2[C@@H]3C(=O)N(C(C)(C)C)C(=O)[C@@H]3[C@]3(Cc4ccccc4)C(=O)N(c4cccc(Br)c4)C(=O)N23)cc1,IC50,Fatty acid synthase [2],21.5 µM (inactive)
same,IC50,Fatty acid synthase [3],13.7 µM (active)
c1ccn(-c2ccc(N3CCOCC3)cc2)c1,EC50,[7],> 195 µM (not active)
same,AC50,Cytochrome P450 3A4,inconclusive
O=C(Oc1ccccc1)N1CCC2(CC1)CCN(c1ccccn1)CC2,AC50,Cytochrome P450 2C19,20 µM (inconclusive)
same,AC50,Cytochrome P450 2C9,31.6 µM (inconclusive)
same,AC50,Cytochrome P450 3A4,inconclusive
Cc1c(Cl)cccc1NC(=O)CN1CCC(C(O)(c2ccccc2)c2ccccc2)CC1,EC50,[8],2.33 µM (active)
same,CC50,[9],> 40 µM (active)
same,EC50,[10],> 30 µM (not active)
same,AC50,Cytochrome P450 3A4,inconclusive
O=[N+]([O-])c1cccc(NC(S)=NCCc2ccccc2)c1,IC50,Fatty acid synthase [2],10.1 µM (active)
same,IC50,Fatty acid synthase [3],9.04 µM (active)
Cc1cc(Br)ccc1OCC(=O)NNC(=O)c1cnccn1,CC50,[11],> 40 µM (active)
same,CC50,[12],17.8 µM (active)
same,IC50,cells,8.2 µM (active)
O=C(COc1ccc([N+](=O)[O-])cc1)N1CCc2ccccc2C1,IC50,Fatty acid synthase [2],6.92 µM (active)
same,IC50,Fatty acid synthase [3],3.46 µM (active)
CNc1nc(SC(C)C(=O)Nc2ccc(Cl)c(Cl)c2)nc(N2CCOCC2)n1 (configuration not stated),EC50,[1],> 260 µM (inactive)
COCOc1cc(O)c(C(=O)/C=C/c2ccccc2)c(OCOC)c1,EC50,[1],22.1 µM (active)
Cc1nc2ncnn2c(C)c1CCC(=O)N1CCN(C(=O)c2ccco2)CC1,AC50,Cytochrome P450 3A4,inconclusive
CC(C)(C)NC(=O)CC1C[C@H](C(=O)N2CCOCC2)[C@@]2(CCC3CCCC3)c3[nH]c4ccccc4c3CCN2C1=O (some centres not stated),IC50,Fatty acid synthase [2],2.31 µM (active)
same,IC50,Fatty acid synthase [3],4.15 µM (active)
O=C(O)/C(=C/c1ccc(Cl)c([N+](=O)[O-])c1)c1ccc(S(=O)(=O)N2CCCCC2)s1,IC50,Fatty acid synthase [2],15.4 µM (active)
same,IC50,Fatty acid synthase [3],12.6 µM (active)
Nc1c(C(=O)N/N=C/c2cccnc2)oc2nc(-c3ccccc3)cc(-c3ccco3)c12,EC50,[13],> 300 µM (not active)
same,EC50,[14],> 300 µM (not active)
same,IC50,H9c2,> 79 µM (inactive)
O=C(C[C@@H]1C[C@@H]2c3cc(NS(=O)(=O)c4ccc(F)cc4)ccc3O[C@@H]2[C@H](CO)O1)NCc1ccccc1F,AC50,[15],1.75 µM (active)
